Experimental data taken from patent US20250262210A1, “LZTR1 MUTANT TUMORS AND METHODS THEREOF” (The Trustees of Columbia University in the City of New York, priority 2022, published 2025).
Peptide text beside a SMILES is read from it. * marks the point of attachment. Cbz = O=C(OCc1ccccc1)*

Assays:
RIT1 = experiment: LZTR1-mediated reduction of RIT1 in transfected HEK 293T cells (western blot); format: cell-based; settings: HEK 293T cells with FLAG-RIT1 and LZTR1-FLAG; FIG. 10A, 10C
Description: (§2) Cells were lysed in RIPA buffer (50 mM Tris-HCl, pH 7.5, 150 mM NaCl, 1 mM EDTA, 1% NP40, 0.5% sodium deoxycholate, 0.1% sodium dodecyl sulphate, 1.5 mM Na3VO4, 50 mM sodium fluoride, 10 mM sodium pyrophosphate, 10 mM β-glycerolphosphate and EDTA-free protease inhibitor cocktail (Roche)) or NP40 lysis buffer (50 mM Tris-HCl, pH 7.5, 150 mM NaCl, 1 mM EDTA, 1% NP40, 1.5 mM Na3VO4, 50 mM sodium fluoride, 10 mM sodium pyrophosphate, 10 mM β-glycerolphosphate and EDTA-free protease inhibitor cocktail (Roche)). Lysates were centrifuged 14,000 r.p.m. for 15 min at 4° C. and supernatant were collected. […] Beads were washed with lysis buffer four times and eluted in 2×SDS sample buffer. Immunoprecipitates or lysates were separated by SDS-PAGE and transferred to polyvinylidene difluoride or nitrocellulose membranes. Membranes were blocked in TBS-T (0.1% Tween20) with 5% non-fat milk or BSA and probed with primary antibodies.

EGFR [1] = experiment: Ubiquitylation assay of EGFR in HEK 293T cells; format: cell-based; settings: MLN4924 1 μM, FIG. 3E
Description: (§1) 293T and Hela cells were transfected with plasmid expressing EGFR-GFP, HA-Ub and LZTR1-FLAG as indicated in figures and treated with MLN4924 (1 μM), chloroquine (CQ, 100 μM), MG132 (20 μM), or EGF (20 ng/ml or 100 ng/ml) and ubiquitylation assay was performed under denaturing condition. Cells were lysed in 1% SDS and boiled at 100° C. for 10 min. Lysates were diluted with tris buffered saline containing 1% N P40 and centrifuged 14000 r.p.m. for 15 min at 4° C. Immunoprecipitation was performed using 500 μg to 1 mg of cellular lysates using HA affinity gel (Sigma, E6779), AXL or EGFR antibodies at 4° C. overnight followed by protein G/A beads for 90 min at 4° C. […] Protein samples were separated by SDS-PAGE and transferred to PV DF membrane and analyzed by western blot.

EGFR [2] = experiment: LZTR1-mediated destabilization of EGFR in transfected HEK 293T cells (western blot); format: cell-based; settings: HEK 293T cells with EGFR-GFP and LZTR1-FLAG; FIG. 3A, 3C
Description: as §2

AXL [3] = experiment: LZTR1-mediated destabilization of AXL in transfected HEK 293T cells (western blot); format: cell-based; settings: HEK 293T cells with AXL-HA and LZTR1-FLAG; FIG. 3B, 3D
Description: as §2

[4] = test system: schwannoma-like cells from Lztr1fl/fl;Cdkn2Afl/fl;GFAP-Cre+ mice (E0954); experiment: Clonogenic assay of schwannoma-like cells; format: cell-based, mouse; settings: single dose; 72 hr treatment; FIG. 15C-F
Description: 500 cells were seeded in triplicate wells of 6-well plates. […] Cells were stained with crystal violet and colonies were counted.

[5] = test system: subcutaneous tumors of schwannoma-like cells from Lztr1fl/fl;Cdkn2Afl/fl;GFAP-Cre+ mice (E0954); format: in vivo; settings: single RTK inhibitor; summary in the discussion
Description: Mice were weighted daily. Tumor diameters were measured every 2 days with caliper and tumor volumes estimated using the formula: width2×length/2=V (mm3). Mice were euthanized when the tumor size reached 2,000 mm3 or if the skin was ulcerated, according to IACUC recommendation. All experiments were performed according to the guidelines of the Institutional Animal Care and Use Committee at Columbia University.

AXL [6] = experiment: Ubiquitylation assay of AXL in Hela cells; format: cell-based; settings: chloroquine 100 μM, MG132 20 μM, FIG. 3F
Description: as §1

In the case of `CC(C)C[C@H](NC(=O)[C@H](Cc1ccccc1)NC(=O)c1cnccn1)B(O)O` [bortezomib], the “RIT1 reduction by LZTR1” value (RIT1) is reported as “rescued”.
With `NS(=O)(=O)OC[C@@H]1C[C@@H](n2ccc3c(N[C@H]4CCc5ccccc54)ncnc32)C[C@@H]1O` [MLN4924] the “RIT1 reduction by LZTR1” value (RIT1) was “rescued”, the “LZTR1-increased formation of high molecular weight polyubiquitylated EGFR” value (EGFR [1]) was “abolished” and the “LZTR1-mediated destabilization of EGFR” value (EGFR [2]) was “rescued”. For the same molecule, the “LZTR1-mediated destabilization of AXL” value (AXL [3]) was “rescued”.
For `CO/C1=C\C(C)=C\[C@@H](C)[C@@H](O)[C@@H](C)C/C(C)=C/C=C/[C@H](OC)[C@@H]([C@@H](C)[C@@H](O)[C@H](C)[C@@]2(O)C[C@@H](O)[C@H](C)[C@@H](C(C)C)O2)OC1=O` [bafilomycin A1], the “LZTR1-mediated destabilization of EGFR” value (EGFR [2]) was “relieved” and the “LZTR1-mediated destabilization of AXL” value (AXL [3]) was “relieved”.
In the case of `CN(C)C/C=C/C(=O)Nc1cc2c(Nc3ccc(F)c(Cl)c3)ncnc2cc1O[C@H]1CCOC1` [afatinib], the clonogenicity [4] is reported as “ineffective”.
For `Nc1nc(Nc2ccc3c(c2)CC[C@@H](N2CCCC2)CC3)nn1-c1cc2c(nn1)-c1ccccc1CCC2` [bemcentinib], the clonogenicity [4] was “ineffective” and the “therapeutic effect of single treatment” value [5] was “minimal”.
`CCN(CC)CCCC(C)Nc1ccnc2cc(Cl)ccc12` (stereo not shown) [chloroquine] was tested, and the “LZTR1-increased polyubiquitylated species of AXL” value (AXL [6]) was “accumulated at much higher levels”.
In the case of `CC(C)C[C@@H](C=O)NC(=O)[C@H](CC(C)C)NC(=O)[C@H](CC(C)C)NC(=O)OCc1ccccc1` [MG132] (Cbz-Leu-Leu-Leu-aldehyde), the “LZTR1-increased polyubiquitylated species of AXL” value (AXL [6]) is reported as “ineffective”.
`C=CC(=O)Nc1cc(Nc2nccc(-c3cn(C)c4ccccc34)n2)c(OC)cc1N(C)CCN(C)C` [osimertinib] was tested, and the clonogenicity [4] was “ineffective”.
